Test results as given in PMC10706865, “Repurposing Study of 4-Acyl-1-phenylaminocarbonyl-2-substituted-piperazine Derivatives as Potential Anticancer Agents—In Vitro Evaluation against Breast Cancer Cells” (International Journal of Molecular Sciences, 2023).
Several values for one entry are separate records, joined by “and”; a condition that tells them apart may be missing. Identical values can stand only once. Like-named read-outs stand apart in the source and are kept apart here.

What was measured:
[1] = test system: MCF 10A human normal breast cells; test: MTT cell viability assay, MCF 10A normal breast cells; format: cell-based
Protocol: (§1) To evaluate the cytotoxicity of our compounds against cancer cells, they were evaluated in vitro against MCF7 human breast cancer cells. To examine the selectivity of our compounds, they were also studied against MCF 10A human normal cells. Both cell lines were exposed to different concentrations of our compounds for 72 h before measuring cell viability with the 3-(4,5-dimethylthiazol-2-yl)-2,5-diphenyltetrazolium bromide (MTT) assay (for conditions of the MTT assay, see the Experimental Part, Section 3). Docetaxel, an anticancer drug used in clinics, was tested under the same experimental conditions. Data were obtained from at least two independent experiments and were expressed as means ± standard error of means (SEM). The half-maximal inhibitory concentration (IC50) value of each compound was calculated, and the results are collected in Table 2. To evaluate the selective activity of our compounds, the selectivity index (SI) was also calculated. The curves of cell viability of MCF7 cancer cells and MCF 10A normal cells after the treatment with our compounds are shown (Figure 5, Figure 6, Figure 7, Figure 8 and Figure 9 and Figures S1–S4).
(§2) Exponentially growing cells were seeded into 96-well plates, and drugs were added 24 h later. Each compound was dissolved with DMSO (Panreac Applichem) to prepare a stock solution (100 mM). The working solutions of specific concentrations were prepared via the dilution of the stock solutions in the culture medium and were immediately used to treat the cells. The remaining stock solutions were aliquoted and frozen at −40 °C. We used different aliquots in each independent experiment to avoid the freeze–thaw cycles. Cells were exposed to the drugs for 72 h. After these 72 h, cell viability was determined with the MTT assay or the resazurin assay. These assays are colorimetric techniques that are widely used to determine cell viability.
(§3) The MTT assay is based on the capability of viable cells to transform the MTT salt into a purple formazan dye. After an incubation period of the cells with the MTT and a solubilization step, the quantity of the colored product is measured with a plate reading spectrophotometer. […] The quantity of formazan produced is presumably proportional to the number of viable cells. After seeding for 24 h, cells were treated with the tested drugs for 72 h. Then, medium was removed, and 125 μL of MTT (1 mg/mL in medium) was added to each well for 3–4 h. Subsequently, 80 μL of 20% sodium dodecyl sulfate (Panreac Applichem) in 20 mM hydrochloric acid (Panreac Applichem) was added to dissolve the insoluble purple formazan product, plates were incubated for 10 h at 37 °C, and optical densities were measured at 540 nm on a multiwell plate spectrophotometer reader.
(§4) In both assays, cell viability was expressed as percentage in relation to controls. All data were averaged from at least two independent experiments and were expressed as mean ± standard error of the mean (SEM). Selectivity indices (SI) were calculated by dividing the IC50 values in the nonmalignant cells by those in the cancer cells.

[2] = test system: MCF7 human breast cancer cells; test: MTT cell viability assay, MCF7 breast cancer cells; format: cell-based; details: for IC50: MTT assay; for Selectivity Index: IC50 MCF 10A divided by IC50 MCF7, 72 h, MTT
Protocol: as §1, §2, §3, §4

[3] = 72 h exposure, read-out: IC50 (Mean ± SEM; μM) MCF 10A (Normal)
[4] = Homo sapiens, MCF7, 72 h, 72 h exposure, read-out: IC50 (Mean ± SEM; μM) MCF7 (Cancer)
[5] = 72 h exposure, read-out: IC50 (Mean ± SEM; μM) MCF7 (Cancer)

Structure (SMILES) | IC50 ([2]; Homo sapiens, MCF7, 72 h, docetaxel line in nM, 72 h, read-out: IC50 (Mean ± SEM) MCF7 (Cancer)) | IC50 [2, 4] | IC50 [2, 5] | IC50 ([1]; docetaxel line in nM, 72 h, read-out: IC50 (Mean ± SEM) MCF 10A (Normal)) | Selectivity Index [2] | IC50 [1, 3]
CC1CN(C(=O)C(C)(C)C)CCN1C(=O)Nc1ccc([N+](=O)[O-])cc1 (stereo not drawn) [Compound 7] |  | 60800 ± 1200 nM |  |  | 0.6 ± 0.1 | 38500 ± 4600 nM
CC1CN(C(=O)OC(C)(C)C)CCN1C(=O)Nc1ccc(C(F)(F)F)cc1 (stereo not drawn) [Compound 16] |  | 31300 ± 3600 nM |  |  | 1.9 ± 0.4 | 60100 ± 19800 nM
O=C(c1cc2ccccc2o1)N1CCN(C(=O)Nc2ccc(Cl)cc2)C(c2ccccc2)C1 (stereo not drawn) [Compound 36] |  | 41300 ± 4200 nM |  |  | 4.0 ± 0.9 | 161000 ± 16500 nM
COc1ccc(NC(=O)N2CCN(C(=O)OC(C)(C)C)CC2c2ccccc2)cc1 (stereo not drawn) [Compound 33] |  | 130000 ± 31400 nM |  |  | 2.6 ± 0.4 | 325000 ± 27600 nM
COc1ccc(NC(=O)N2CCN(C(=O)C(C)(C)C)CC2C)cc1 (stereo not drawn) [Compound 8] |  | 118000 ± 48700 nM |  |  | 5.2 ± 3.1 | 541000 ± 259000 nM
COc1ccc(NC(=O)N2CCN(C(=O)c3ccccc3)CC2C)cc1 (stereo not drawn) [Compound 11] |  | 359000 ± 74700 nM |  |  | 1.4 ± 0.4 | 478000 ± 35600 nM
CC1CN(C(=O)c2cc3ccccc3o2)CCN1C(=O)Nc1ccc(Cl)cc1 (stereo not drawn) [Compound 19] |  | 30500 ± 1100 nM |  |  |  | 261000 ± 2600 nM
O=C(c1cc2ccccc2o1)N1CCN(C(=O)Nc2ccccc2[N+](=O)[O-])C(c2ccccc2)C1 (stereo not drawn) [Compound 39] |  | 226000 ± 175000 nM |  |  | >2.5 | > 1e+06 nM
CC(C)(C)OC(=O)N1CCN(C(=O)Nc2ccc([N+](=O)[O-])cc2)C(c2ccccc2)C1 (stereo not drawn) [Compound 26] |  |  |  |  | 15.2 ± 11.1 | 71300 ± 3600 nM
CC1CN(C(=O)c2cc3ccccc3o2)CCN1C(=O)Nc1ccccc1 (stereo not drawn) [Compound 25] |  | 48500 ± 10100 nM |  |  | 3.2 ± 0.7 | 161000 ± 64600 nM
CC1CN(C(=O)c2cc3ccccc3o2)CCN1C(=O)Nc1ccc(C#N)cc1 (stereo not drawn) [Compound 21] |  | < 20000 nM | 19400 ± 3800 nM |  | 1.6 ± 0.2 | 31200 ± 2800 nM
O=C(c1cc2ccccc2o1)N1CCN(C(=O)Nc2cc(C(F)(F)F)ccc2Cl)C(c2ccccc2)C1 (stereo not drawn) [Compound 38] |  | 91900 ± 35700 nM |  |  | 1.4 ± 0.3 | 117000 ± 21100 nM
CC1CN(C(=O)OC(C)(C)C)CCN1C(=S)Nc1ccc([N+](=O)[O-])cc1 (stereo not drawn) [Compound 14] |  | 34200 ± 100 nM |  |  | 1.0 ± 0.1 | 35600 ± 4500 nM
Cc1ccc(NC(=O)N2CCN(C(=O)OC(C)(C)C)CC2c2ccccc2)cc1 (stereo not drawn) [Compound 34] |  | 24400 ± 3100 nM |  |  | 2.9 ± 0.5 | 68700 ± 2800 nM
CC1CN(C(=O)c2ccccc2)CCN1C(=O)Nc1ccc([N+](=O)[O-])cc1 (stereo not drawn) [Compound 10] |  | 26700 ± 3300 nM |  |  | 1.3 ± 0.1 | 34100 ± 1700 nM
COc1ccc(NC(=O)N2CCN(C(=O)OC(C)(C)C)CC2C)cc1 (stereo not drawn) [Compound 13] |  | 250000 ± 19400 nM |  |  | 3.6 ± 0.6 | 915000 ± 226000 nM
CC1CN(C(=O)c2cc3ccccc3o2)CCN1C(=O)Nc1ccccc1Br (stereo not drawn) [Compound 24] |  | 25300 ± 1600 nM |  |  | 1.3 ± 0.1 | 33500 ± 3500 nM
CC1CN(C(=O)c2cc3ccccc3o2)CCN1C(=O)Nc1ccc([N+](=O)[O-])cc1 (stereo not drawn) [Compound 18] |  | < 20000 nM | 12100 ± 600 nM |  | 2.5 ± 0.2 | 30400 ± 1800 nM
CC(C)(C)OC(=O)N1CCN(C(=O)Nc2ccccc2[N+](=O)[O-])C(c2ccccc2)C1 (stereo not drawn) [Compound 30] |  | 24300 ± 3400 nM |  |  | 2.6 ± 0.1 | 63200 ± 10900 nM
COc1ccccc1NC(=O)N1CCN(C(=O)c2cc3ccccc3o2)CC1C (stereo not drawn) [Compound 23] |  | 31400 ± 5500 nM |  |  | 2.3 ± 0.6 | 74700 ± 30200 nM

The next lines start with results.

IC50 ([2]; Homo sapiens, MCF7, 72 h, docetaxel line in nM, 72 h, read-out: IC50 (Mean ± SEM) MCF7 (Cancer)) | IC50 [2, 4] | IC50 [2, 5] | Structure (SMILES) | IC50 ([1]; docetaxel line in nM, 72 h, read-out: IC50 (Mean ± SEM) MCF 10A (Normal)) | Selectivity Index [2] | IC50 [1, 3]
76.1 ± 26.2 nM |  |  | CC(=O)O[C@@]12CO[C@@H]1C[C@H](O)[C@@]1(C)C(=O)[C@H](O)C3=C(C)[C@@H](OC(=O)[C@H](O)[C@@H](NC(=O)OC(C)(C)C)c4ccccc4)C[C@@](O)([C@@H](OC(=O)c4ccccc4)[C@H]21)C3(C)C [Docetaxel, reference compound] | < 1 nM | ˂1 | 
 | 22700 ± 1600 nM |  | CC1CN(C(=O)OC(C)(C)C)CCN1C(=O)Nc1ccc(C(F)(F)F)c(Cl)c1 (stereo not drawn) [Compound 17] |  | 1.9 ± 0.2 | 41700 ± 4100 nM
 | 17700 ± 5000 nM | < 20000 nM | CC1CN(C(=O)c2cc3ccccc3o2)CCN1C(=O)NC12CC3CC(CC(C3)C1)C2 (stereo not drawn) [Compound 41, 4-(Benzofuran-2-carbonyl)-2-methyl-1-[(1-adamantyl)aminocarbonyl]piperazine] |  | 5.1 ± 2.3 and ~ 5 | 103000 ± 66900 nM
 | < 20000 nM | 15800 ± 8200 nM | CC1CN(C(=O)C(C)(C)C)CCN1C(=S)Nc1ccc([N+](=O)[O-])cc1 (stereo not drawn) [Compound 9] |  | 4.2 ± 1.0 | 58200 ± 18300 nM
 | 43400 ± 3700 nM |  | CC1CN(C(=O)OC(C)(C)C)CCN1C(=O)Nc1ccc(Cl)cc1 (stereo not drawn) [Compound 15] |  | 3.8 ± 1.1 | 170000 ± 61600 nM
 | < 20000 nM | 16800 ± 4000 nM | CC(C)(C)OC(=O)N1CCN(C(=O)Nc2ccc(Cl)cc2)C(c2ccccc2)C1 (stereo not drawn) [Compound 27] |  | 2.2 ± 0.9 | 33800 ± 6000 nM
 | < 20000 nM | 19500 ± 3500 nM | CC(C)(C)OC(=O)N1CCN(C(=O)Nc2ccc(C#N)cc2)C(c2ccccc2)C1 (stereo not drawn) [Compound 28] |  | 2.7 ± 0.8 | 55200 ± 24400 nM
 | 24800 ± 1700 nM |  | CC(C)(C)OC(=O)N1CCN(C(=O)Nc2ccc(F)cc2)C(c2ccccc2)C1 (stereo not drawn) [Compound 29] |  | 2.2 ± 0.5 | 56300 ± 16500 nM
 | 28100 ± 1200 nM |  | CC1CN(C(=O)c2cc3ccccc3o2)CCN1C(=O)Nc1ccccc1[N+](=O)[O-] (stereo not drawn) [Compound 22] |  | 1.2 ± 0.1 | 32400 ± 1900 nM
 | 31700 ± 4100 nM |  | CC1CN(C(=O)c2cc3ccccc3o2)CCN1C(=O)Nc1ccc(C(F)(F)F)cc1 (stereo not drawn) [Compound 20] |  |  | 244000 ± 8200 nM
 | 34600 ± 4800 nM |  | CC1CN(C(=O)OC(C)(C)C)CCN1C(=O)Nc1ccc([N+](=O)[O-])cc1 (stereo not drawn) [Compound 12] |  | 2.4 ± 0.0 | 84200 ± 12400 nM
